Active and inactive are the calls of the source. The rule behind the calls is not given here.
Columns and labels:
RAW264.7 [1] = test: Cytotoxicity against mouse RAW264.7 cells at 10 uM measured after 24 hrs by CCK-8 method; type: functional, cell-based
[2] = target: T1, 3',5'-cyclic-AMP phosphodiesterase 4D (Homo sapiens, UniProt Q08499); test: Inhibition of PDE4D (unknown origin) at 1 uM relative to control
RAW264.7 [3] = test: Antiinflammatory activity against mouse RAW264.7 cells assessed as inhibition of LPS-induced TNF-alpha release preincubated for 2 hrs followed by LPS stimulation and measured after 4 hrs by RT-PCR analysis; type: functional, cell-based
[4] = target: T1, 3',5'-cyclic-AMP phosphodiesterase 4D; test: Inhibition of PDE4D (unknown origin)
RAW264.7 [5] = test: Cytotoxicity against mouse RAW264.7 cells measured after 24 hrs by CCK-8 method; type: functional
RAW264.7 [6] = test: Antiinflammatory activity against mouse RAW264.7 cells assessed as inhibition of LPS-induced NO release preincubated for 2 hrs followed by LPS stimulation and measured after 4 hrs by RT-PCR analysis; type: functional, cell-based
Rattus norvegicus [7] = test: Antiinflammatory activity against male Sprague-Dawley rat pressure ulcer model assessed as decrease in inflammatory cells in dermis administered as ointment by Masson staining based analysis; type: functional, organism-based
Rattus norvegicus [8] = test: Antiinflammatory activity against male Sprague-Dawley rat pressure ulcer model assessed as appearance of thinner epidermal layer administered as ointment by H and E staining based analysis; type: functional, organism-based
Rattus norvegicus [9] = test: Antiinflammatory activity against male Sprague-Dawley rat pressure ulcer model assessed as reduction in IL6 mRNA expression in skin administered as ointment by qRT-PCR analysis; type: functional, organism-based
Rattus norvegicus [10] = test: Antiinflammatory activity against male Sprague-Dawley rat pressure ulcer model assessed as wound healing rate administration as ointment measured after 7 days (reference value: 70%); type: functional; settings: time 7 day
Rattus norvegicus [11] = test: Antiinflammatory activity against male Sprague-Dawley rat pressure ulcer model assessed as appearance of orderly arranged cells administered as ointment by Masson staining based analysis; type: functional, organism-based
Rattus norvegicus [12] = test: Antiinflammatory activity against male Sprague-Dawley rat pressure ulcer model assessed as appearance of orderly arranged cells administered as ointment by H and E staining based analysis; type: functional, organism-based
Rattus norvegicus [13] = test: Antiinflammatory activity against male Sprague-Dawley rat pressure ulcer model assessed as increase in number of fibroblasts administered as ointment by Masson staining based analysis; type: functional, organism-based
Rattus norvegicus [14] = test: Antiinflammatory activity against male Sprague-Dawley rat pressure ulcer model assessed as decrease in inflammatory cells in dermis administered as ointment by H and E staining based analysis; type: functional, organism-based
Rattus norvegicus [15] = test: Antiinflammatory activity against male Sprague-Dawley rat pressure ulcer model assessed as reduction in TNF-alpha mRNA expression in skin administered as ointment by qRT-PCR analysis; type: functional, organism-based
Rattus norvegicus [16] = test: Antiinflammatory activity against male Sprague-Dawley rat pressure ulcer model assessed as appearance of thinner epidermal layer administered as ointment by Masson staining based analysis; type: functional, organism-based
Rattus norvegicus [17] = test: Antiinflammatory activity against male Sprague-Dawley rat pressure ulcer model assessed as increase in number of fibroblasts administered as ointment by H and E staining based analysis; type: functional, organism-based
Enterococcus faecium = test: Antibacterial activity against Enterococcus faecium BNCC358275 assessed as reduction in bacterial colonies growth at 512 ug/ml measured after 24 hrs by agar plate method; type: functional, organism-based; settings: dose 512.0 µg/ml
Enterococcus faecalis = test: Antibacterial activity against Enterococcus faecalis BNCC296862 assessed as reduction in bacterial colonies growth at 512 ug/ml measured after 24 hrs by agar plate method; type: functional, organism-based; settings: dose 512.0 µg/ml

T1 sequence (Q08499 whole entry): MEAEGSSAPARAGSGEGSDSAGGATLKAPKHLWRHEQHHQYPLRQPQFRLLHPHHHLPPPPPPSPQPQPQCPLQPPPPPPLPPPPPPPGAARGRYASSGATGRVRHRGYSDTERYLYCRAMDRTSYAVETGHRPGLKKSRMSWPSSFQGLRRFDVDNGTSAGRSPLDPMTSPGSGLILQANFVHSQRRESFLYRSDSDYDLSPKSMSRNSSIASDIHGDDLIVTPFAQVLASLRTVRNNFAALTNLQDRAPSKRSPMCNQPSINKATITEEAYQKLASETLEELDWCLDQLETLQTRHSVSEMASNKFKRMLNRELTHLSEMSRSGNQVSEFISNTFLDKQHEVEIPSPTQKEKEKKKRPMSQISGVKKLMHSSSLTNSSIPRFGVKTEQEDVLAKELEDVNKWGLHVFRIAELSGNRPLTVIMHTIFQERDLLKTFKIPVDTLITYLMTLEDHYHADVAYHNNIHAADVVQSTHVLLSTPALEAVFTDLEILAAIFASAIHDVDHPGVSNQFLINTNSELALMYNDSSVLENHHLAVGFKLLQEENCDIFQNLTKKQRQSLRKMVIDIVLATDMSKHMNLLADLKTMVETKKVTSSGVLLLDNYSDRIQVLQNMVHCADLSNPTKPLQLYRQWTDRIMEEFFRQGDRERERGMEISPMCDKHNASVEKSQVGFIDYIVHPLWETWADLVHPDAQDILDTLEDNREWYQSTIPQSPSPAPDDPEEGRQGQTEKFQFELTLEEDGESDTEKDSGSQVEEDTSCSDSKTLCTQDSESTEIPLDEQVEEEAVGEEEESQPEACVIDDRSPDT

Row | Structure (SMILES) | Activity (RAW264.7 [1]) | inhibition [2] [%] | also measured
1 | Cn1c(=O)c2c(ncn2CCCC(=O)NNC(=O)c2cccc3[nH]c(-c4ccc(OC(F)F)c(OC(F)F)c4)nc23)n(C)c1=O | inactive | 97.9 | IC50 (RAW264.7 [3]): > 60 µM; IC50 [4]: 0.041 µM; CC50 (RAW264.7 [5]): 76.8 µM; IC50 (RAW264.7 [6]): 2.18 µM
2 | Cn1c(=O)c2c(nc(NCc3ccccc3)n2CCCC(=O)NNC(=O)c2coc(-c3ccc(OC(F)F)c(OCC4CC4)c3)n2)n(C)c1=O | inactive | 85.5 | –
3 | Cn1c(=O)c2c(ncn2CCCC(=O)NNC(=O)c2cc3nccc(-c4ccc(OC(F)F)c(OCC5CC5)c4)n3n2)n(C)c1=O | inactive | 95.6 | –
4 | Cn1c(=O)c2c(nc(Br)n2CCCC(=O)NNC(=O)c2coc(-c3ccc(OC(F)F)c(OCC4CC4)c3)n2)n(C)c1=O | inactive | 85.3 | –
5 | Cn1c(=O)c2c(nc(Br)n2CCCC(=O)NNC(=O)c2cc3nccc(-c4ccc(OC(F)F)c(OCC5CC5)c4)n3n2)n(C)c1=O | inactive | 94.7 | IC50 [4]: 0.276 µM
6 | Cn1c(=O)c2c(nc(NCc3ccccc3)n2CCCC(=O)NNC(=O)c2csc(-c3ccc(OC(F)F)c(OCC4CC4)c3)n2)n(C)c1=O | inactive | 89.9 | –
7 | Cn1c(=O)c2c(ncn2CCC(=O)NNC(=O)c2c[nH]c(-c3ccc(OC(F)F)c(OCC4CC4)c3)n2)n(C)c1=O | inactive | 96.4 | –
8 | Cn1c(=O)c2c(ncn2CCC(=O)NNC(=O)c2cccc3[nH]c(-c4ccc(OC(F)F)c(OC(F)F)c4)nc23)n(C)c1=O | inactive | 92.6 | IC50 [4]: 0.029 µM
9 | Cn1c(=O)c2c(nc(Br)n2CCCC(=O)NNC(=O)c2cccc3[nH]c(-c4ccc(OC(F)F)c(OC(F)F)c4)nc23)n(C)c1=O | inactive | 96.8 | –
10 | Cn1c(=O)c2c(ncn2CCC(=O)NNC(=O)c2cccc3[nH]c(-c4ccc(OC(F)F)c(OCC5CC5)c4)nc23)n(C)c1=O | inactive | 96.9 | –
11 | Cn1c(=O)c2c(nc(NCc3ccccc3)n2CCCC(=O)NNC(=O)c2cccc3[nH]c(-c4ccc(OC(F)F)c(OC(F)F)c4)nc23)n(C)c1=O | inactive | 92.4 | –
12 | O=C(Nc1c(Cl)cncc1Cl)c1ccc(OC(F)F)c(OCC2CC2)c1 [ROFLUMILAST] | – | – | Activity (Rattus norvegicus [7]): Active; Activity (Rattus norvegicus [8]): Active; Activity (Rattus norvegicus [9]): Active; Activity (Rattus norvegicus [10]): 81%; Activity (Rattus norvegicus [11]): Active; Activity (Rattus norvegicus [12]): Active; Activity (Rattus norvegicus [13]): Active; Activity (Rattus norvegicus [14]): Active; Activity (Rattus norvegicus [15]): Active; Activity (Rattus norvegicus [16]): Active; Activity (Rattus norvegicus [17]): Active
13 | Cn1c(=O)c2c(nc(NCc3ccccc3)n2CCCC(=O)NNC(=O)c2cccc3[nH]c(-c4ccc(OC(F)F)c(OCC5CC5)c4)nc23)n(C)c1=O | inactive | 85.7 | –
14 | CN[C@H](CC(C)C)C(=O)N[C@H]1C(=O)N[C@@H](CC(N)=O)C(=O)N[C@H]2C(=O)N[C@H]3C(=O)N[C@H](C(=O)N[C@H](C(=O)O)c4cc(O)cc(O)c4-c4cc3ccc4O)[C@H](O)c3ccc(c(Cl)c3)Oc3cc2cc(c3O[C@@H]2O[C@H](CO)[C@@H](O)[C@H](O)[C@H]2O[C@H]2C[C@](C)(N)[C@H](O)[C@H](C)O2)Oc2ccc(cc2Cl)[C@H]1O | – | – | Activity (Enterococcus faecium): Active; Activity (Enterococcus faecalis): Active
15 | Cn1c(=O)c2c(nc(Br)n2CCCC(=O)NNC(=O)c2cccc3[nH]c(-c4ccc(OC(F)F)c(OCC5CC5)c4)nc23)n(C)c1=O | inactive | 99.2 | –
16 | COc1ccc(C2CNC(=O)C2)cc1OC1CCCC1 (stereo not given) [ROLIPRAM] | – | – | IC50 (RAW264.7 [3]): 39.9 µM; CC50 (RAW264.7 [5]): > 60 µM; IC50 (RAW264.7 [6]): > 60 µM
17 | Cn1c(=O)c2c(ncn2CCCC(=O)NNC(=O)c2cnn3c(-c4ccc(OC(F)F)c(OCC5CC5)c4)ccnc23)n(C)c1=O | inactive | 85.7 | –
18 | Cn1c(=O)c2c(nc(NCc3ccccc3)n2CCCC(=O)NNC(=O)c2cc3nccc(-c4ccc(OC(F)F)c(OCC5CC5)c4)n3n2)n(C)c1=O | inactive | 43 | –
19 | Cn1c(=O)c2c(ncn2CCCC(=O)NNC(=O)c2cccc3[nH]c(-c4ccc(OC(F)F)c(OCC5CC5)c4)nc23)n(C)c1=O | inactive | 96.8 | –
20 | Cn1c(=O)c2c(ncn2CCCC(=O)NNC(=O)c2coc(-c3ccc(OC(F)F)c(OCC4CC4)c3)n2)n(C)c1=O | inactive | 92.4 | –
21 | Cn1c(=O)c2c(nc(Br)n2CCCC(=O)NNC(=O)c2csc(-c3ccc(OC(F)F)c(OCC4CC4)c3)n2)n(C)c1=O | inactive | 97.2 | –
22 | Cn1c(=O)c2c(ncn2CCC(=O)NNC(=O)c2coc(-c3ccc(OC(F)F)c(OCC4CC4)c3)n2)n(C)c1=O | inactive | 63 | –
23 | Cn1c(=O)c2c(ncn2CCC(=O)NNC(=O)c2csc(-c3ccc(OC(F)F)c(OCC4CC4)c3)n2)n(C)c1=O | inactive | 87.5 | –
24 | Cn1c(=O)c2c(ncn2CCC(=O)NNC(=O)c2c[nH]c(-c3ccc(OC(F)F)c(OC(F)F)c3)n2)n(C)c1=O | inactive | 82.1 | –
25 | Cn1c(=O)c2c(ncn2CCC(=O)NNC(=O)c2cnn3c(-c4ccc(OC(F)F)c(OCC5CC5)c4)ccnc23)n(C)c1=O | inactive | 38.8 | –
26 | Cn1c(=O)c2c(ncn2CCCC(=O)NNC(=O)c2csc(-c3ccc(OC(F)F)c(OCC4CC4)c3)n2)n(C)c1=O | inactive | 98.4 | –
27 | Cn1c(=O)c2c(nc(NCc3ccccc3)n2CCCC(=O)NNC(=O)c2cnn3c(-c4ccc(OC(F)F)c(OCC5CC5)c4)ccnc23)n(C)c1=O | inactive | 30.3 | –

Source: ChEMBL document CHEMBL6178016, “Design, Synthesis, and Biological Evaluation of New PDE4 Inhibitors for the Treatment of Pressure Ulcers” (J Med Chem, 2025)
